{"source": "paper PMC3238097", "about": "(Journal of the American Chemical Society, 2011)", "origin": "cited, not measured here"}
{"substance": "naphthalene-diphenylalanine-glucosamine", "values": [{"measurement": "hydrogel formation", "value": "fails to form hydrogel properly"}]}
